Assay [1] has as its target T1, glutathione-S-transferase (GST) tagged LXRalpha LBD (ligand binding domain) (Homo sapiens, UniProt Q13133).
T1 construct: purchased Invitrogen pv4655
T1 sequence (Q13133 209-447 limits assumed): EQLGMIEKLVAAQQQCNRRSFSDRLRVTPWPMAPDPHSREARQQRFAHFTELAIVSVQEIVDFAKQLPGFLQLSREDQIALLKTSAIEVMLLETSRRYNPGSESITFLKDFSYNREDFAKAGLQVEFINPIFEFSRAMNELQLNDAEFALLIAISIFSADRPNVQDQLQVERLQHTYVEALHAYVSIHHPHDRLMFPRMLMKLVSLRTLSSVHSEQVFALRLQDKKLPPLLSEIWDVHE
The assay is described as follows: LanthaScreen TR-FRET Liver X Receptor Coactivator Assay, co-activator recruitment to LXRalpha LBD. In kind it is biochemical. To be noted: for Emax: read-out: LXR alpha Activity @ max dose (%); for pEC50: read-out: LXR alpha IP. An outline of the steps: (§1)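 Compound-induced coactivator recruitment by the GST-fused ligand binding domain, detected as TR-FRET between Tb-labelled anti-GST antibody and fluorescein-tagged coactivator peptide after room-temperature incubation. IP and Emax expressed versus T0901317 as reference agonist.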
On the technique in general: Time-resolved FRET reads energy transfer from a long-lived donor to a nearby acceptor.

For assay [2], the target named is T2, glutathione-S-transferase (GST) tagged LXRbeta LBD (ligand binding domain) (Homo sapiens, UniProt P55055).
T2 construct: purchased Invitrogen pv4658.pps
T2 sequence (P55055 222-460 limits assumed): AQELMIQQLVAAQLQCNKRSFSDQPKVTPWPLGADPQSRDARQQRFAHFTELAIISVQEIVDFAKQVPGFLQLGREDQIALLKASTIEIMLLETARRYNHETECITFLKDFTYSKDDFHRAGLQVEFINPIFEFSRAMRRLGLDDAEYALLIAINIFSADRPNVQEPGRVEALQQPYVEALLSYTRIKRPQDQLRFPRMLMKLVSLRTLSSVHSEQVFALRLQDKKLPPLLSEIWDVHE
As to the kind of experiment: LanthaScreen TR-FRET Liver X Receptor Coactivator Assay, co-activator recruitment to LXRbeta LBD. Format: biochemical. Conditions: for Emax: read-out: LXR beta Activity @ max dose (%); for pEC50: potency (Inflection Point, IP), co-activator recruitment to LXRbeta LBD, in relation to T0901317, read-out: LXR beta IP. In a few lines: as §1

Setting [3] is: efficacy at max dose, in relation to reference dual agonist T0901317.
Setting [4] is: potency (Inflection Point, IP), co-activator recruitment to LXRalpha LBD, in relation to T0901317.

Each structure is given as a SMILES string. pEC50: −log10 of the molar value.

As to `COc1cccc(C(O)(C(=O)N2CCC(CC3CCN(c4ccc(C(=O)N(C)C)c(Cl)n4)CC3)CC2)C(F)(F)C(F)(F)F)c1` (centres unmarked) [Example 7-58, 2-chloro-N,N-dimethyl-6-[4-({1-[3,3,4,4,4-pentafluoro-2-hydroxy-2-(3-methoxyphenyl)butanoyl]piperidin-4-yl}methyl)piperidin-1-yl]pyridine-3-carboxamide], the Emax came to 19% in assay [1] (setting [3]) and 80% in assay [2] (setting [3]). Also, the pEC50 was 6.56 in assay [1] (setting [4]) and 7.96 in assay [2].

Regarding `CC(C)C(O)(C(=O)N1CCC(CC2CCN(c3ccc(C(=O)N(C)C)c(Cl)n3)CC2)CC1)C(F)(F)F` (centres unmarked) [Example 7-59, 2-chloro-6-[4-({1-[2-hydroxy-3-methyl-2-(trifluoromethyl)butanoyl]piperidin-4-yl}methyl)piperidin-1-yl]-N,N-dimethylpyridine-3-carboxamide], the Emax in assay [1] (setting [3]) stood at 39%; in assay [2] (setting [3]) it was 107%. Besides, the pEC50 was 5.57 in assay [1] (setting [4]) and 6.53 in assay [2].

Turning to `CN(C)C(=O)c1ccc(N2CCC(CC3CCN(C(=O)[C@](O)(c4ccccc4)C(F)(F)C(F)(F)F)CC3)CC2)nc1Cl` [Example 7-60, 2-chloro-N,N-dimethyl-6-[4-({1-[(2R)-3,3,4,4,4-pentafluoro-2-hydroxy-2-phenylbutanoyl]piperidin-4-yl}methyl)piperidin-1-yl]pyridine-3-carboxamide], the results for the Emax in assay [1] (setting [3]) and in assay [2] (setting [3]) were 60% and 153%, respectively. Besides, the pEC50 is 6.83 in assay [1] (setting [4]) and 8.15 in assay [2].

On to `CN(C)C(=O)c1ccc(N2CCC(CC3CCN(C(=O)C(C)(C)c4ccccc4)CC3)CC2)nc1Cl` [Example 7-61, 2-chloro-N,N-dimethyl-6-(4-{[1-(2-methyl-2-phenylpropanoyl)piperidin-4-yl]methyl}piperidin-1-yl)pyridine-3-carboxamide], for which the figures for the Emax in assay [1] (setting [3]) and in assay [2] (setting [3]) were 21% and 68%, respectively. Besides, the results for the pEC50 in assay [1] (setting [4]) and in assay [2] were 6.09 and 7.35, respectively.

Take `CN(C)C(=O)c1ccc(N2CCC(CC3CCN(C(=O)[C@@](O)(c4ccccc4)C(F)(F)F)CC3)CC2)nc1Cl` [Example 7-62, 2-chloro-N,N-dimethyl-6-[4-({1-[(2S)-3,3,3-trifluoro-2-hydroxy-2-phenylpropanoyl]piperidin-4-yl}methyl)piperidin-1-yl]pyridine-3-carboxamide]: the values for the Emax in assay [1] (setting [3]) and in assay [2] (setting [3]) were 31% and 119%, respectively. Besides, the pEC50 is 5.87 in assay [1] (setting [4]) and 7.09 in assay [2].

Take `CN(C)C(=O)c1ccc(N2CCC(CC3CCN(C(=O)[C@](O)(c4ccccc4)C(F)(F)F)CC3)CC2)nc1Cl` [Example 7-63, 2-chloro-N,N-dimethyl-6-[4-({1-[(2R)-3,3,3-trifluoro-2-hydroxy-2-phenylpropanoyl]piperidin-4-yl}methyl)piperidin-1-yl]pyridine-3-carboxamide]: the Emax in assay [1] (setting [3]) was found to be 39%; in assay [2] (setting [3]), 102%. In addition, the pEC50 in assay [1] (setting [4]) was 6.80; in assay [2], 8.22.

`CN(C)C(=O)c1ccc(N2CCC(CC3CCN(C(=O)C4(c5ccccc5)CCCC4)CC3)CC2)nc1Cl` [Example 7-64, 2-chloro-N,N-dimethyl-6-[4-({1-[(1-phenylcyclopentyl)carbonyl]piperidin-4-yl}methyl)piperidin-1-yl]pyridine-3-carboxamide]: the Emax was determined as 19% in assay [1] (setting [3]) and 80% in assay [2] (setting [3]). Besides, the values for the pEC50 in assay [1] (setting [4]) and in assay [2] were 6.18 and 7.24, respectively.

As to `CN(C)C(=O)c1ccc(N2CCC(CC3CCN(C(=O)C4(c5ccccc5F)CCCC4)CC3)CC2)nc1Cl` [Example 7-65, 2-chloro-6-{4-[(1-{[1-(2-fluorophenyl)cyclopentyl]carbonyl}piperidin-4-yl)methyl]piperidin-1-yl}-N,N-dimethylpyridine-3-carboxamide], the Emax in assay [1] (setting [3]) was 29%; in assay [2] (setting [3]), 95%. The pEC50 in assay [1] (setting [4]) is 6.18; in assay [2], 7.32.

`CN(C)C(=O)c1ccc(N2CCC(CC3CCN(C(=O)C(O)(c4cccnc4)C(F)(F)F)CC3)CC2)nc1Cl` (centres unmarked) [Example 7-66, 2-chloro-N,N-dimethyl-6-(4-{[1-(3,3,3-trifuoro-2-hydroxy-2-pyridin-3-ylpropanoyl)piperidin-4-yl]methyl}piperidin-1-yl)pyridine-3-carboxamide]: the Emax in assay [1] (setting [3]) amounted to 48%; in assay [2] (setting [3]), 108%. The pEC50 is 5.80 in assay [1] (setting [4]) and 7.08 in assay [2].

Consider `CN(C)C(=O)c1ccc(N2CCC(CC3CCN(C(=O)[C@](O)(c4cccc(Br)c4)C(F)(F)F)CC3)CC2)nc1Cl` [Example 7-67, 6-[4-({1-[(2R)-2-(3-bromophenyl)-3,3,3-trifluoro-2-hydroxypropanoyl]piperidin-4-yl}methyl)piperidin-1-yl]-2-chloro-N,N-dimethylpyridine-3-carboxamide], for which the Emax was found to be 0% in assay [1] (setting [3]) and 73% in assay [2] (setting [3]). Moreover, the pEC50 in assay [1] (setting [4]) was 6.96; in assay [2] it was 8.40.

Regarding `CN(C)C(=O)c1ccc(N2CCC(CC3CCN(C(=O)[C@@](O)(c4cccc(Br)c4)C(F)(F)F)CC3)CC2)nc1Cl` [Example 7-68, 6-[4-({1-[(2S)-2-(3-bromophenyl)-3,3,3-trifluoro-2-hydroxypropanoyl]piperidin-4-yl}methyl)piperidin-1-yl]-2-chloro-N,N-dimethylpyridine-3-carboxamide], the Emax in assay [1] (setting [3]) was 12%; in assay [2] (setting [3]), 118%. The pEC50 is 5.99 in assay [1] (setting [4]) and 7.19 in assay [2].

As for `CN(C)C(=O)c1ccc(N2CCC(CC3CCN(C(=O)[C@](O)(c4cccc(Cl)c4)C(F)(F)F)CC3)CC2)nc1Cl` [Example 7-69, 2-chloro-6-[4-({1-[(2R)-2-(3-chlorophenyl)-3,3,3-trifluoro-2-hydroxypropanoyl]piperidin-4-yl}methyl)piperidin-1-yl]-N,N-dimethylpyridine-3-carboxamide], the Emax in assay [1] (setting [3]) is 30%; in assay [2] (setting [3]), 82%. The pEC50 was 7.15 in assay [1] (setting [4]) and 8.52 in assay [2].

`CN(C)C(=O)c1ccc(N2CCC(CC3CCN(C(=O)[C@@](O)(c4cccc(Cl)c4)C(F)(F)F)CC3)CC2)nc1Cl` [Example 7-70, 2-chloro-6-[4-({1-[(2S)-2-(3-chlorophenyl)-3,3,3-trifluoro-2-hydroxypropanoyl]piperidin-4-yl}methyl)piperidin-1-yl]-N,N-dimethyl-pyridine-3-carboxamide]: the Emax was 34% in assay [1] (setting [3]) and 110% in assay [2] (setting [3]). For the same compound, the pEC50 in assay [1] (setting [4]) was 5.90; in assay [2], 7.60.

With `CN(C)C(=O)c1ccc(N2CCC(CC3CCN(C(=O)[C@@](O)(c4ccccc4F)C(F)(F)F)CC3)CC2)nc1Cl` [Example 7-71, 2-chloro-N,N-dimethyl-6-[4-({1-[(2S)-3,3,3-trifluoro-2-(2-fluorophenyl)-2-hydroxypropanoyl]piperidin-4-yl}methyl)piperidin-1-yl]pyridine-3-carboxamide], the Emax in assay [1] (setting [3]) came to 45%; in assay [2] (setting [3]), 122%. In addition, the pEC50 was 5.69 in assay [1] (setting [4]) and 7.26 in assay [2].

In the case of `CN(C)C(=O)c1ccc(N2CCC(CC3CCN(C(=O)[C@](O)(c4cccc(F)c4)C(F)(F)F)CC3)CC2)nc1Cl` [Example 7-72, 2-chloro-N,N-dimethyl-6-[4-({1-[(2R)-3,3,3-trifluoro-2-(3-fluorophenyl)-2-hydroxypropanoyl]piperidin-4-yl}methyl)piperidin-1-yl]pyridine-3-carboxamide], the results for the Emax in assay [1] (setting [3]) and in assay [2] (setting [3]) were 50% and 91%, respectively. The pEC50 was 7.06 in assay [1] (setting [4]) and 8.52 in assay [2].

On to `CN(C)C(=O)c1ccc(N2CCC(CC3CCN(C(=O)[C@@](O)(c4cccc(F)c4)C(F)(F)F)CC3)CC2)nc1Cl` [Example 7-73, 2-chloro-N,N-dimethyl-6-[4-({1-[(2S)-3,3,3-trifluoro-2-(3-fluorophenyl)-2-hydroxypropanoyl]piperidin-4-yl}methyl)piperidin-1-yl]pyridine-3-carboxamide], for which the figures for the Emax in assay [1] (setting [3]) and in assay [2] (setting [3]) were 47% and 128%, respectively. Further, the pEC50 in assay [1] (setting [4]) was 6.04; in assay [2] it was 7.33.

As to `COc1cccc([C@@](O)(C(=O)N2CCC(CC3CCN(c4ccc(C(=O)N(C)C)c(Cl)n4)CC3)CC2)C(F)(F)F)c1` [Example 7-74, 2-chloro-N,N-dimethyl-6-[4-({1-[(2R)-3,3,3-trifluoro-2-hydroxy-2-(3-methoxyphenyl)propanoyl]piperidin-4-yl}methyl)piperidin-1-yl] pyridine-3-carboxamide], the “LXR alpha Activity @ max dose (%)” value in assay [1] (setting [3]) stood at 9%. In addition, in assay [1] (setting [4]), the “LXR alpha IP (nM)” value is on record as “NO IP”. For the same compound, the “LXR beta Activity @ max dose (%)” value in assay [2] (setting [3]) stood at 61%. For the same compound, the pEC50 in assay [2] was 8.15.

Source of the values: patent publication US10752587B2, “Homobispiperidinyl derivatives as liver X receptor beta agonists, compositions and their use” (Merck Sharp & Dohme Corp., priority 2015, dated 2020).
